ChEMBL document CHEMBL1201862, “PubChem BioAssay data set” (2004)
Activity calls are given as the source filed them.

Legend:
[1] = A High Throughput Confirmatory Assay used to Identify Novel Compounds that Inhibit Mycobacterium Tuberculosis in the absence of Glycerol.; assay type: functional
[2] = target: T1, Replicative DNA helicase DnaB (Mycobacterium tuberculosis, UniProt P9WMR3); assay: DnaB intein splicing inhibitors, dose response, biochemical, cell-free fluorescence (AID 449749); assay type: functional
T1 sequence (P9WMR3 whole entry): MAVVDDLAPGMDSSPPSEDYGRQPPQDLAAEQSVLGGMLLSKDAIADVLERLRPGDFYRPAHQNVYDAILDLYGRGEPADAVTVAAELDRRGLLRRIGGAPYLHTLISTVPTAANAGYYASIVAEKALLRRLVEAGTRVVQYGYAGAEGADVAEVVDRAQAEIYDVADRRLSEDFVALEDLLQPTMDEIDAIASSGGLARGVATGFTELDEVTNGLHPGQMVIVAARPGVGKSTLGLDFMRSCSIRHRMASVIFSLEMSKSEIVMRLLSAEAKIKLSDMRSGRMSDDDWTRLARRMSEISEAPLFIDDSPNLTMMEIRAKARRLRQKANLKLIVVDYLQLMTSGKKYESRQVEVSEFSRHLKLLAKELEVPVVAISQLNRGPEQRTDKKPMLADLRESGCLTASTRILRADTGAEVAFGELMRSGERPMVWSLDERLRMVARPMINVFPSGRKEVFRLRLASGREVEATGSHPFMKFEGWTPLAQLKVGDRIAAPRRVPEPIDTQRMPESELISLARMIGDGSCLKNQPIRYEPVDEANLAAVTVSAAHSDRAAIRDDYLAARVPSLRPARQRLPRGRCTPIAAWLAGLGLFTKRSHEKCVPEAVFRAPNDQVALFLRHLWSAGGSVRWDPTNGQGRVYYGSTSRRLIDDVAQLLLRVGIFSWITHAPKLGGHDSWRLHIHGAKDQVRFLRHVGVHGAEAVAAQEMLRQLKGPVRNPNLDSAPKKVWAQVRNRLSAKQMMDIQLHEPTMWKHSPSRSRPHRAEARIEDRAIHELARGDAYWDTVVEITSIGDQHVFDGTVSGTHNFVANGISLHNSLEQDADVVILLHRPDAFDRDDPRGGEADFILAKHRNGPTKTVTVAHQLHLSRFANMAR

Protein RecA = target: T2, Protein RecA (Mycobacterium tuberculosis, UniProt P9WHJ3); assay: Fluorescence Cell-Free Homogeneous Dose Retest to Identify Inhibitors of RecA-Intein Splicing Activity. [Related pubchem assays (depositor defined):AID2097, AID2223, AID489010, AID492950]; assay type: functional
T2 sequence (P9WHJ3 whole entry): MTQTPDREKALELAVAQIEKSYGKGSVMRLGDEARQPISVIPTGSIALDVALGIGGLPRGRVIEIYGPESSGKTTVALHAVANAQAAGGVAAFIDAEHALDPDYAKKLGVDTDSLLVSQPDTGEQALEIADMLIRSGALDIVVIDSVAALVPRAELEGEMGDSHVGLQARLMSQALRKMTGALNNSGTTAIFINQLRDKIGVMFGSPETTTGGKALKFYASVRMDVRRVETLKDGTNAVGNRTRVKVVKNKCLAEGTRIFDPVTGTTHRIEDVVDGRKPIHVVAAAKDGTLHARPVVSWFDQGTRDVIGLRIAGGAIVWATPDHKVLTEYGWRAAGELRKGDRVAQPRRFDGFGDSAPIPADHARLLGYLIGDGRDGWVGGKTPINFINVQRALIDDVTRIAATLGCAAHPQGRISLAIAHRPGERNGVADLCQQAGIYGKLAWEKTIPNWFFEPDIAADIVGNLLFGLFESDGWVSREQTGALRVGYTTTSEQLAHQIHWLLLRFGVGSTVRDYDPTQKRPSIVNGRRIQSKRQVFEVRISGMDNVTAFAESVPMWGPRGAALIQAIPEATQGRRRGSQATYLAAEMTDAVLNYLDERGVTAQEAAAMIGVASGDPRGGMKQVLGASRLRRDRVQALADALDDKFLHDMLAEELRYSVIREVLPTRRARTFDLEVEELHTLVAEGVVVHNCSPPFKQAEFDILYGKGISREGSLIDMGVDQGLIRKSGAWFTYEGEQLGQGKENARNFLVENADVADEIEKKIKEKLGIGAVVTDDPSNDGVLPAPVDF

[3] = target: T3, Lysosomal acid glucosylceramidase (Homo sapiens, UniProt P04062); assay: Dose response cell-based high throughput screening assay to identify enhancers of beta-glucosidase activity. [Related pubchem assays: 784 ]; assay type: functional
T3 sequence (P04062 whole entry): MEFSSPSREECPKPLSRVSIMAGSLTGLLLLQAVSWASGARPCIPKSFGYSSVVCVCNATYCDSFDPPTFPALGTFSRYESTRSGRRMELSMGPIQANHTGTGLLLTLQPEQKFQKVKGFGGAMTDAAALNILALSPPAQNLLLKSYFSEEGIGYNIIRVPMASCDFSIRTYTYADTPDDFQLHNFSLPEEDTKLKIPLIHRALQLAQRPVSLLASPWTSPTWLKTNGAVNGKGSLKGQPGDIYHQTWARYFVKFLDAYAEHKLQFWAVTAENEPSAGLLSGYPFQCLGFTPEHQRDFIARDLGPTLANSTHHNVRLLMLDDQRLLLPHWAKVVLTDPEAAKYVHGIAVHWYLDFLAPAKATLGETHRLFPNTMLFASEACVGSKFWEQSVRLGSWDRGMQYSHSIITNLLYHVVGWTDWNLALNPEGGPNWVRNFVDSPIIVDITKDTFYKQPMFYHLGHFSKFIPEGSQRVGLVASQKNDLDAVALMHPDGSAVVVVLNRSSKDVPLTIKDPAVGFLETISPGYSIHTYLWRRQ

[4] = A cytotoxicity screen of small molecule inhibitors of the PhoP region in Salmonella typhi identified in the primary screen. [Related pubchem assays: 1850, 1864, 1985 ]; assay type: functional
[5] = Luminescence Cell-Based Dose Retest to Confirm Inhibitors of Cancer Stem Cells. [Related pubchem assays (depositor defined):AID2717, AID2721]; assay type: functional; conditions: Homo sapiens
[6] = cytotoxicity in HEK-293T cells, dose response, cytotoxicity control for TCR NF-kB inhibitor project, luminescence, T-cell screen hits (AID 489026); assay type: functional, cell-based;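 also: cells exposed to compound about 14 hours before the viability readout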
[7] = target: Eukaryotic translation initiation factor 4E (Mus musculus, UniProt P63073); assay: eIF4E–eIF4G protein interaction inhibitors, dose response, biochemical, TR-FRET (AID 855); assay type: functional;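 also: potency for disrupting eIF4E binding to eIF4GI seen as loss of FRET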
BJ [8] = assay: cytotoxicity toward BJ-TERT fibroblasts, dose response, cell-based, RAS-independent, luminescence (AID 1933); assay type: functional; conditions: Homo sapiens
BJ [9] = assay: cells; assay type: functional, cell-based; conditions: Homo sapiens
BJ [10] = assay: cytotoxicity toward BJ-TERT-LT-ST fibroblasts, dose response, cell-based, RAS-independent, luminescence (AID 1935); assay type: functional; conditions: Homo sapiens;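 also: BJ fibroblasts immortalized with TERT plus LT and ST oncogenes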
[11] = cytotoxicity toward DRD oncogenic fibroblasts, dose response, cell-based, non-viral oncogenic, luminescence (AID 1934); assay type: functional; conditions: Homo sapiens
[12] = microbe, parasite or virus in culture; assay type: functional; conditions: Mycobacterium tuberculosis
[13] = THP-1 cell cytotoxicity, dose response, cytotoxicity control for non-replicating M. tuberculosis project (AID 489025); assay type: functional
cells = assay type: functional
[14] = A549 cell cytotoxicity, dose response, cytotoxicity control, plate reader, cherry-pick, antagonist series (AID 743412); assay type: functional, cell-based
[15] = HepG2 cell cytotoxicity, dose response, cytotoxicity control, plate reader, cherry-pick, antagonist series (AID 743416); assay type: functional, cell-based
[16] = LGR2 antagonists, dose response, cell-based, HEK293, CRE-luciferase reporter, cherry pick, set 2 (AID 743343); assay type: functional;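 also: transfected cells were stimulated with diluted bursicon conditioned medium after compound addition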
[17] = MC4R antagonists, dose response, counter-screen for LGR2 antagonist project, cell-based, plate reader, cherry pick (AID 743444); assay type: functional;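 also: transfected HEK 293 cells stimulated with alpha-MSH peptide; potency of inhibitors of the alpha-MSH evoked signal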
[18] = HEK293 cell cytotoxicity, dose response, cytotoxicity control, plate reader, cherry-picked samples (AID 743446); assay type: functional, cell-based
Cytochrome P450 2C19 = Cytochrome P450 2C19 (Homo sapiens, UniProt P33261); assay: Cytochrome panel assay with activity outcomes. Panel member name: p450-cyp2c19 Compounds with AC50 equal or less than 10 uM are considered active; assay type: functional; conditions: read-out: AC50
Cytochrome P450 1A2 = target: T4, Cytochrome P450 1A2 (Homo sapiens, UniProt P05177);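 also: PubChem cytochrome P450 panel assay, CYP1A2 panel member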
T4 sequence (P05177 whole entry): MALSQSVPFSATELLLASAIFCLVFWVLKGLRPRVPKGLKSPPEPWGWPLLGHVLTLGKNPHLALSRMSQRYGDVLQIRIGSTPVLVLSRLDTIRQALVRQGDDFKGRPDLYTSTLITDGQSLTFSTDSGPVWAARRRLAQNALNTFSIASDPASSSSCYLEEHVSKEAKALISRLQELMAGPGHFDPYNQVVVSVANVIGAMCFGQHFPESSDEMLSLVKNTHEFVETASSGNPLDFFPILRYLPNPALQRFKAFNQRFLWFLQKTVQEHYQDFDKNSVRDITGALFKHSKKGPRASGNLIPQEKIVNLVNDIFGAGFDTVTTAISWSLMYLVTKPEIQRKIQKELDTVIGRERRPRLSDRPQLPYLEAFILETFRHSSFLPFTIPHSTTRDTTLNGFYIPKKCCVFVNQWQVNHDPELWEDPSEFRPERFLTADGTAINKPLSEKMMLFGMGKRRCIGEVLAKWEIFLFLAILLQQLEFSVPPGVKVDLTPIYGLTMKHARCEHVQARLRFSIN

Cytochrome P450 3A4 = Cytochrome P450 3A4 (Homo sapiens, UniProt P08684);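 also: CYP3A4 tested as one member of a cytochrome P450 panel screen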
Sequence of Cytochrome P450 3A4 (P08684 whole entry): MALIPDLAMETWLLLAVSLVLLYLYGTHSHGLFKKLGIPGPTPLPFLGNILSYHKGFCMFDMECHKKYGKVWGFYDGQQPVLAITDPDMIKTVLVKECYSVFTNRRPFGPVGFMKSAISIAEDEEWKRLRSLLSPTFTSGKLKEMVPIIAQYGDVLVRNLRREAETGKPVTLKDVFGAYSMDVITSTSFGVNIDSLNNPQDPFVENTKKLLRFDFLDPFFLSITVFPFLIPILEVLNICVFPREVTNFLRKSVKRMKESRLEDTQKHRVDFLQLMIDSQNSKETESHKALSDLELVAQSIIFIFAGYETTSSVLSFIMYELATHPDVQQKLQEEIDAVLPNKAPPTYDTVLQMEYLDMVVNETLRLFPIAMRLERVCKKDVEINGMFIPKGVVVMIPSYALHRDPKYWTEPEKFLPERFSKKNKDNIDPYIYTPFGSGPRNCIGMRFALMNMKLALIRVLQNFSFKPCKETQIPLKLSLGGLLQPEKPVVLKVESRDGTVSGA

Sequence of Eukaryotic translation initiation factor 4E (P63073 whole entry): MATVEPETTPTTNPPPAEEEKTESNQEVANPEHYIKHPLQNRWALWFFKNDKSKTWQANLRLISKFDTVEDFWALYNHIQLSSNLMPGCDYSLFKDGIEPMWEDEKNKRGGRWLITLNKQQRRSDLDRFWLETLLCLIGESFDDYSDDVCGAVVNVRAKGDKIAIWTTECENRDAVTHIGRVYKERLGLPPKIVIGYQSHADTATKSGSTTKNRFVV
Sequence of Cytochrome P450 2C19 (P33261 whole entry): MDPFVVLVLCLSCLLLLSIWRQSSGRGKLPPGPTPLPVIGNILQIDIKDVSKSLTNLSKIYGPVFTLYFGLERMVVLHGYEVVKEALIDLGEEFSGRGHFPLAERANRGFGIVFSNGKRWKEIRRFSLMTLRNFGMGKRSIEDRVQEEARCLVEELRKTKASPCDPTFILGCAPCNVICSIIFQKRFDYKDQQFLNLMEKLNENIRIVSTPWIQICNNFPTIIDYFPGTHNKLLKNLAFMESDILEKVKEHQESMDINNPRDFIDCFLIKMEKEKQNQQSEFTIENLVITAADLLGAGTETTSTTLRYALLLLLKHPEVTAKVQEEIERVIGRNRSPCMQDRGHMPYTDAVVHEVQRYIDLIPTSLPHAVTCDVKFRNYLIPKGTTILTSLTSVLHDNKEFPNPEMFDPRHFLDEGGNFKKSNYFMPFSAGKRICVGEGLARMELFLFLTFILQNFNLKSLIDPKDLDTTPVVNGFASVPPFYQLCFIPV

## Cc1ccc(-c2ccc(C3C(C#N)=C(N)Oc4[nH]nc(C)c43)o2)cc1 (stereo unspecified)
[1]
  IC50: > 100 µM (active)
[2]
  AC50: > 380 µM (inactive)
Protein RecA
  EC50: 4.25 µM (active)

## C=CCN(C(=O)Cn1nnc2ccccc21)C(C(=O)NCCOC)c1ccc(OC)cc1OC (stereo unspecified)
[3]
  EC50: > 50 µM (not active)

## CC1CCCN(C(=O)Cn2c(=O)oc3cc(S(=O)(=O)N4CCCCC4)ccc32)C1 (stereo unspecified)
[4]
  EC50: > 50 µM (active)

## CCOc1ccc(OCCSc2nc3ccccc3[nH]2)cc1
[4]
  EC50: > 50 µM (active)

## Cc1c(Cl)cccc1N(CC(=O)O)S(C)(=O)=O
[3]
  EC50: > 50 µM (not active)

## O=C(CCS(=O)(=O)c1ccc(Br)cc1)N1CCN(Cc2ccccc2)CC1
[3]
  EC50: > 50 µM (not active)

## COC(=O)Nc1ccc(S(=O)(=O)N2c3ccccc3CCC2C)cc1 (stereo unspecified)
[5]
  AC50: 0.876 µM (active)
[6]
  IC50: > 80 µM (inactive)

## COC(=O)/C=C/C(=O)N1CCN(c2ccccc2C)CC1
[7]
  IC50: > 64 µM (inactive)

## Cc1ccc(NC(=O)C(=O)NNC(=O)c2cccs2)cc1
[4]
  EC50: > 50 µM (active)

## O=C(CN(Cc1ccco1)C(=O)CNS(=O)(=O)c1ccc(Cl)cc1)NCc1ccc(F)cc1
[4]
  EC50: > 50 µM (active)

## CCOc1ccc(S(=O)(=O)NCc2ccccn2)cc1NC(=O)c1ccccc1F
BJ [8]
  EC50: 2.76 µM (active)
BJ [9]
  EC50: 21.4 µM (active)
BJ [10]
  EC50: 1.79 µM (active)
[11]
  EC50: 12.9 µM (inconclusive)
[6]
  IC50: > 80 µM (inactive)

## Cc1cc(C)cc(N2CCN(C(=O)N3CCOCC3)CC2)c1
[3]
  EC50: > 50 µM (not active)

## O=C(O)CCSc1nnc(SCC(=O)NCC(F)(F)F)s1
[7]
  IC50: > 64 µM (inactive)

## COC(=O)c1ccc(CSc2nc(C(F)(F)F)c3c(c2C#N)CCC3)o1
[1]
  IC50: > 100 µM (active)
[12]
  CC50: > 40 µM (active)

## Cc1ccnc(NC(=O)c2cc3ccccc3o2)c1
[1]
  IC50: > 50 µM (active)
[12]
  CC50: > 40 µM (active)
[13]
  CC50: > 40 µM (active)
cells
  IC50: 19.3 µM (active)
[14]
  AC50: 30 µM (active)
[15]
  AC50: > 52 µM (inactive)
[16]
  AC50: 2.27 µM (active)
[17]
  AC50: 2.06 µM (active)
[18]
  AC50: 52 µM (active)

## O=C(C1CCN(S(=O)(=O)c2cccnc2)CC1)N1CCN(c2cccc(Cl)c2)CC1
[7]
  IC50: > 64 µM (inactive)

## Cc1ccc(C)c(NC(=O)C2CC(O)CN2C(=O)OC(C)(C)C)c1 (stereo unspecified)
[3]
  EC50: > 50 µM (not active)
Cytochrome P450 2C19
  AC50: 28.2 µM (inconclusive)
Cytochrome P450 1A2
  AC50: 31.6 µM (inconclusive)
Cytochrome P450 3A4
  AC50: 25.1 µM (inconclusive)
